This note sets out measurements from ChEMBL document CHEMBL1159185, “Metabolism and structure activity data based drug design: discovery of () SCH 53079 an analog of the potent cholesterol absorption inhibitor () SCH 48461” (1996).

The test system of assay [1] is Cricetinae gen. sp. The assay is described as follows: Compound was evaluated for the reduction of liver cholesterol ester levels in the cholesterol-fed Hamster model at 50 mg/kg. The assay is classed as functional.
Assay [2] relates to Cricetinae gen. sp. Kind of assay: Compound was evaluated for the reduction of liver cholesterol ester levels in the cholesterol-fed Hamster model at 50 mpk. The assay is classed as functional.
Assay [3] deals with Cricetinae gen. sp. Kind of assay: Compound was evaluated for the reduction of liver cholesterol ester levels in the cholesterol-fed Hamster model. The assay is classed as functional.
Another assay deals with Monkey. The assay is described as follows: Compound was evaluated for the reduction of liver cholesterol ester levels in the cholesterol-fed rhesus monkey model. The assay is classed as functional, Cercopithecidae.
Assay [4] is filed under the species Rattus norvegicus. The assay is described as follows: Compound was evaluated for the plasma concentration in female rats at 1 hr after post dose. The assay is classed as functional, organism-based.
The species entered for assay [5] is Rattus norvegicus. Kind of assay: Compound was evaluated for the plasma concentration in female rats at 24 hr after post dose. The assay is classed as functional, organism-based.
For assay [6], the species on record is Rattus norvegicus. Kind of assay: Compound was evaluated for the plasma concentration in female rats at 2 hr after post dose. Type of assay: functional, organism-based.
Assay [7] is filed under the species Rattus norvegicus. The assay is described as follows: Compound was evaluated for the plasma concentration in female rats at 4 hr after post dose. Type of assay: functional, organism-based.
Assay [8] is filed under the species Rattus norvegicus. The assay is described as follows: Compound was evaluated for the plasma concentration in female rats at 8 hr after post dose. The assay is classed as functional, organism-based.

Turning to `COc1ccc([C@@H]2[C@@H](CCOc3ccc([N+](=O)[O-])cc3)C(=O)N2c2ccccc2)cc1`, in the assay with Cricetinae gen. sp. [1], the Reduction is given as -31%.
Same read-out and setting: to `COc1ccc(OCC[C@H]2C(=O)N(c3ccccc3)[C@@H]2c2ccc(OC)cc2)cc1` belongs -82%.
For the molecule `COc1ccc([C@@H]2[C@@H](CCOc3ccc(F)cc3F)C(=O)N2c2ccccc2)cc1`, in the assay on Cricetinae gen. sp. [1], the Reduction is recorded as -88%.
For the molecule `COc1ccc([C@@H]2[C@@H](CCOc3ccccc3)C(=O)N2c2ccc(OC)cc2)cc1`, the Reduction with Cricetinae gen. sp. [1] is -39%.
Take `COc1ccc([C@@H]2[C@@H](CCOc3ccc4c(c3)CCC4)C(=O)N2c2ccccc2)cc1` (racemic): in the assay with Cricetinae gen. sp. [1], the Reduction is -46%.
On to `COc1ccc([C@@H]2[C@@H](CCOc3ccc(I)cc3)C(=O)N2c2ccccc2)cc1` (racemic), for which, in the assay with Cricetinae gen. sp. [1], the Reduction is -47%.
Regarding `COc1ccc([C@@H]2[C@@H](CCOc3ccc(F)cc3)C(=O)N2c2ccc(OC)cc2)cc1` (racemic), in the assay on Cricetinae gen. sp. [1], the Reduction was -93%.
`COc1ccc([C@@H]2[C@@H](CCCc3ccccc3)C(=O)N2c2ccc(OC)cc2)cc1` (racemic) [SCH-48461]: the Reduction in the assay with Cricetinae gen. sp. [2] is reported as -78%.
As for `COc1ccc([C@@H]2[C@@H](CCOc3ccc(F)cc3)C(=O)N2c2ccccc2)cc1` (stereo in doubt; (+)4), the Reduction in the assay on Cricetinae gen. sp. [1] (50 mg/kg) is listed as -28%.
The same measure, in the same setting: in the case of `COc1ccc([C@@H]2[C@@H](CCOc3ccc(F)cc3)C(=O)N2c2ccccc2)cc1` (stereo in doubt; (+/-)4) it was -95%.
By ED50 is commonly meant the midpoint of the dose-response relation. In the case of `COc1ccc([C@@H]2[C@@H](CCOc3ccc(F)cc3)C(=O)N2c2ccccc2)cc1` (stereo in doubt; (-)4) [listing 1 of 2 here], the Reduction in the assay with Cricetinae gen. sp. [1] (50 mg/kg) was -93%. Moreover, the 50% effect level in the assay with Cricetinae gen. sp. [3] (ED50) was put at a dose of 2.2 mg/kg. The ED100 in the assay with Monkey stood at 0.3 MPK.
As for `COc1ccc([C@@H]2[C@@H](CCOc3ccc(F)cc3)C(=O)N2c2ccccc2)cc1` (stereo in doubt; (-)4) [listing 2 of 2 here], the Plasma level in the assay filed under Rattus norvegicus [4] is > 30 ng/mL; in the assay listed under Rattus norvegicus [5], < 30 ng/mL; in the assay listed under Rattus norvegicus [6], 41.1 ng/mL; in the assay filed under Rattus norvegicus [7] it was < 30 ng/mL; in the assay filed under Rattus norvegicus [8] it was 239 ng/mL.
As for `COc1ccc([C@@H]2[C@@H](CCCc3ccccc3)C(=O)N2c2ccc(OC)cc2)cc1` [SCH-48461], in the assay on Monkey, the ED100 came out at 1 MPK.
